Measured values published in patent publication US8252788B2, “Therapeutic compounds” (Allergan, Inc., priority 2008, dated 2012).

Experiments:
[1] = tested on: normotensive dogs; experiment: In vivo intraocular pressure (IOP) test in normotensive dogs
Description: Title compounds H145 and H146 from above are tested in vivo to test its ability to reduce intraocular pressure. Compound H145 is tested in normotensive dogs.

[2] = tested on: laser-induced hypertensive monkeys; experiment: In vivo intraocular pressure (IOP) test in laser-induced hypertensive monkeys
[3] = tested on: lashes and adjacent hairs; experiment: Observation of lashes and adjacent hairs in glaucoma patients treated with bimatoprost in one eye; type: in vivo
Text: In the course of treating patients having glaucoma, treatment may only be appropriate in one eye. […] The lash appearance on the lids of the treated eyes would have appeared quite attractive if it represented a bilateral phenomenon. As a result of its asymmetric nature, the long lashes on one side could be construed as disturbing from a cosmetic standpoint. A systemic examination was preformed as a result of the asymmetric phenomenon. It soon became apparent that this altered appearance was not an isolated finding. […] Definite differences could be identified to varying degrees in the lashes and adjacent hairs of all patients who were taking the drug on a unilateral basis for longer than 6 months.
The changes in the lashes were apparent on gross inspection in several patients once attention was focused on the issue. In those with light colored hair and lashes, the differences were only seen easily with the aid of the high magnification and lighting capabilities of the slit lamp biomicroscope. In the course of glaucoma follow-up examination, attention is generally immediately focused on the eye itself. As a result of the high power magnification needed only one eye is seen at a time and the eye is seen at a high enough power that the lashes are not in focus. […]

Structure (SMILES) | intraocular pressure (IOP) versus baseline [1] | IOP versus baseline [2] | lash appearance in treated eye versus non-treated eye ([3]; glaucoma patient treated in one eye) | hair growth in treated versus control areas ([3]; multiple parameters of hair appearance, many subjects)
O=C(OCCO)c1ccc(CCC[C@@H]2[C@@H](CSc3cc(Cl)cc(Cl)c3)[C@H](O)C[C@H]2Cl)s1 [Compound H145] | decreases from baseline | decreases from baseline |  | 
O=C(OCCN1CCOCC1)c1ccc(CCC[C@@H]2[C@@H](CSc3cc(Cl)cc(Cl)c3)[C@H](O)C[C@H]2Cl)s1 [Compound H146] | decreases from baseline | decreases from baseline |  | 
O=C(OCCO)c1ccc(CCC[C@@H]2[C@@H](CNc3cc(Cl)cc(Cl)c3)[C@H](O)C[C@H]2Cl)s1 [Compound H147] | decreases from baseline | decreases from baseline |  | 
O=C(OCCN1CCOCC1)c1ccc(CCC[C@@H]2[C@@H](CNc3cc(Cl)cc(Cl)c3)[C@H](O)C[C@H]2Cl)s1 [Compound H148] | decreases from baseline | decreases from baseline |  | 
CCNC(=O)CCC/C=C\C[C@@H]1[C@@H](/C=C/[C@@H](O)CCc2ccccc2)[C@H](O)C[C@@H]1O [bimatoprost] |  |  | longer, thicker, and fuller | stimulated
